{"source": "paper PMC12892976", "about": "“Alkylation-based optimization of antifungal FPPS inhibitors yields a potent, broad-spectrum lipophilic zoledronate derivative” (mBio, 2025)", "key": {"Saccharomyces cerevisiae [1]": {"system": "Saccharomyces cerevisiae", "test": "MIC/MFC broth microdilution (CLSI)", "format": "cell-based", "conditions": "Saccharomyces cerevisiae S288c", "experimental": "(§1) Antifungal susceptibility was determined by broth microdilution according to the CLSI guidelines described in M27-Ed4 ([16]). […] MFC was determined by back-plating drug-treated cultures from MIC broths onto SDA plates. The MFC was defined as the lowest concentration from which no colonies could be cultured."}, "Candida albicans [2]": {"system": "Candida albicans", "test": "MIC/MFC broth microdilution (CLSI)", "format": "cell-based", "conditions": "Candida albicans SC5314", "experimental": "as §1"}, "[3]": {"system": "Cryptococcus deuterogattii", "test": "checkerboard drug interaction (FICI, MICc)", "format": "cell-based", "experimental": "(§2) Drug interactions between antifungals and FPPS inhibitors were investigated using a simplified checkerboard diagonal screening method ([45]). […] FICIs were determined according to the Loewe additivity model ([17])."}, "Cryptococcus neoformans [4]": {"system": "Cryptococcus neoformans", "test": "checkerboard drug interaction (FICI, MICc)", "format": "cell-based", "experimental": "as §2"}, "Fusarium oxysporum": {"system": "Fusarium oxysporum", "test": "checkerboard drug interaction (FICI, MICc)", "format": "cell-based", "experimental": "as §2"}, "Scedosporium apiospermum": {"system": "Scedosporium apiospermum", "test": "checkerboard drug interaction (FICI, MICc)", "format": "cell-based", "experimental": "as §2"}, "Saccharomyces cerevisiae [5]": {"system": "Saccharomyces cerevisiae", "test": "checkerboard drug interaction (FICI, MICc)", "format": "cell-based", "experimental": "as §2"}, "Candida glabrata [6]": {"system": "Candida glabrata", "test": "checkerboard drug interaction (FICI, MICc)", "format": "cell-based", "experimental": "as §2"}, "Candida albicans [7]": {"system": "Candida albicans", "test": "checkerboard drug interaction (FICI, MICc)", "format": "cell-based", "experimental": "as §2"}, "Aspergillus flavus [8]": {"system": "Aspergillus flavus", "test": "checkerboard drug interaction (FICI, MICc)", "format": "cell-based", "experimental": "as §2"}, "Aspergillus fumigatus [9]": {"system": "Aspergillus fumigatus", "test": "checkerboard drug interaction (FICI, MICc)", "format": "cell-based", "experimental": "as §2"}, "Trichophyton rubrum [10]": {"system": "Trichophyton rubrum", "test": "checkerboard drug interaction (FICI, MICc)", "format": "cell-based", "experimental": "as §2"}, "eight fungal species": {"system": "eight fungal species", "test": "MIC/MFC summary across the eight fungal species of Table 1", "format": "cell-based", "conditions": "for MFC: across eight species, read-out: Geometric mean MFC; for MIC: read-out: Geometric mean MIC", "procedure": "The antifungal activity of these compounds was evaluated according to CLSI guidelines ([16])."}, "[11]": {"system": "Cryptococcus deuterogattii", "test": "MIC/MFC broth microdilution (CLSI)", "conditions": "for MFC / MIC: Cryptococcus deuterogattii; for MIC / MEC: Cryptococcus deuterogattii R265", "experimental": "as §1"}, "Cryptococcus neoformans [12]": {"system": "Cryptococcus neoformans", "test": "MIC/MFC broth microdilution (CLSI)", "conditions": "for MFC / MIC: Cryptococcus neoformans; for MIC / MEC: Cryptococcus neoformans H99", "experimental": "as §1"}, "Candida glabrata [13]": {"system": "Candida glabrata", "test": "MIC/MFC broth microdilution (CLSI)", "conditions": "for MIC / MEC: Candida glabrata CBS138 (ATCC 2001); for MFC / MIC: Nakaseomyces glabratus, CBS138", "experimental": "as §1"}, "Aspergillus flavus [14]": {"system": "Aspergillus flavus", "test": "MIC/MFC broth microdilution (CLSI)", "conditions": "ATCC204304", "experimental": "as §1"}, "Aspergillus fumigatus [15]": {"system": "Aspergillus fumigatus", "test": "MIC/MFC broth microdilution (CLSI)", "conditions": "ATCC204305", "experimental": "as §1"}, "Trichophyton rubrum [16]": {"system": "Trichophyton rubrum", "test": "MIC/MFC broth microdilution (CLSI)", "conditions": "for MFC / MIC: Trichophyton rubrum; for MIC / MEC: Trichophyton rubrum R-218", "experimental": "as §1"}}}
{"compound": "CCC(C)n1ncn(-c2ccc(N3CCN(c4ccc(OCC5COC(Cn6cncn6)(c6ccc(Cl)cc6Cl)O5)cc4)CC3)cc2)c1=O", "note": "(centres unmarked) [ITR, itraconazole]", "values": [{"measurement": "MFC", "setting": "Saccharomyces cerevisiae [1]", "result": 1, "unit": "µg/mL"}, {"measurement": "MIC", "setting": "Saccharomyces cerevisiae [1]", "result": 0.25, "unit": "µg/mL"}, {"measurement": "MIC / MEC", "setting": "Saccharomyces cerevisiae [1]", "result": 0.25, "unit": "µg/mL"}, {"measurement": "MFC", "setting": "Candida albicans [2]", "result": 2, "unit": "µg/mL"}, {"measurement": "MIC", "setting": "Candida albicans [2]", "result": 0.25, "unit": "µg/mL"}, {"measurement": "MIC / MEC", "setting": "Candida albicans [2]", "result": 0.25, "unit": "µg/mL"}, {"measurement": "antifungal MICc", "setting": "[3]; in combination with 10-ZOL", "result": 0.125}, {"measurement": "antifungal MICc", "setting": "[3]; in combination with ZOL", "result": 0.25}, {"measurement": "antifungal MICc", "setting": "Cryptococcus neoformans [4]; in combination with 10-ZOL", "result": 0.063}, {"measurement": "antifungal MICc", "setting": "Cryptococcus neoformans [4]; in combination with ZOL", "result": 0.125}, {"measurement": "antifungal MICc", "setting": "Fusarium oxysporum; in combination with 10-ZOL", "result": 1}, {"measurement": "antifungal MICc", "setting": "Fusarium oxysporum; in combination with ZOL", "result": 1}, {"measurement": "antifungal MICc", "setting": "Scedosporium apiospermum; in combination with 10-ZOL", "result": 4}, {"measurement": "antifungal MICc", "setting": "Scedosporium apiospermum; in combination with ZOL", "result": 4}, {"measurement": "antifungal MICc", "setting": "Saccharomyces cerevisiae [5]; in combination with 10-ZOL", "result": 0.125}, {"measurement": "antifungal MICc", "setting": "Saccharomyces cerevisiae [5]; in combination with ZOL", "result": 0.063}, {"measurement": "antifungal MICc", "setting": "Candida glabrata [6]; in combination with 10-ZOL", "result": 0.031}, {"measurement": "antifungal MICc", "setting": "Candida glabrata [6]; in combination with ZOL", "result": 0.016}, {"measurement": "antifungal MICc", "setting": "Candida albicans [7]; in combination with 10-ZOL", "result": 0.25}, {"measurement": "antifungal MICc", "setting": "Candida albicans [7]; in combination with ZOL", "result": 0.25}, {"measurement": "antifungal MICc", "setting": "Aspergillus flavus [8]; in combination with 10-ZOL", "result": 0.5}, {"measurement": "antifungal MICc", "setting": "Aspergillus flavus [8]; in combination with ZOL", "result": 0.5}, {"measurement": "antifungal MICc", "setting": "Aspergillus fumigatus [9]; in combination with 10-ZOL", "result": 0.063}, {"measurement": "antifungal MICc", "setting": "Aspergillus fumigatus [9]; in combination with ZOL", "result": 0.063}, {"measurement": "antifungal MICc", "setting": "Trichophyton rubrum [10]; in combination with 10-ZOL", "result": 1}, {"measurement": "antifungal MICc", "setting": "Trichophyton rubrum [10]; in combination with ZOL", "result": 2}, {"measurement": "MFC", "setting": "eight fungal species", "result": 3.7, "unit": "µg/mL"}, {"measurement": "MIC", "setting": "eight fungal species", "result": 0.5, "unit": "µg/mL"}, {"measurement": "MFC", "setting": "[11]", "result": 4, "unit": "µg/mL"}, {"measurement": "MIC", "setting": "[11]", "result": 1, "unit": "µg/mL"}, {"measurement": "MIC / MEC", "setting": "[11]", "result": 1, "unit": "µg/mL"}, {"measurement": "MFC", "setting": "Cryptococcus neoformans [12]", "result": 4, "unit": "µg/mL"}, {"measurement": "MIC", "setting": "Cryptococcus neoformans [12]", "result": 0.5, "unit": "µg/mL"}, {"measurement": "MIC / MEC", "setting": "Cryptococcus neoformans [12]", "result": 0.5, "unit": "µg/mL"}, {"measurement": "MIC / MEC", "setting": "Candida glabrata [13]", "result": 0.13, "unit": "µg/mL"}, {"measurement": "MFC", "setting": "Candida glabrata [13]", "result": 4, "unit": "µg/mL"}, {"measurement": "MIC", "setting": "Candida glabrata [13]", "result": 0.125, "unit": "µg/mL"}, {"measurement": "MFC", "setting": "Aspergillus flavus [14]", "result": 2, "unit": "µg/mL"}, {"measurement": "MIC", "setting": "Aspergillus flavus [14]", "result": 0.5, "unit": "µg/mL"}, {"measurement": "MIC / MEC", "setting": "Aspergillus flavus [14]", "result": 0.5, "unit": "µg/mL"}, {"measurement": "MFC", "setting": "Aspergillus fumigatus [15]", "result": 4, "unit": "µg/mL"}, {"measurement": "MIC", "setting": "Aspergillus fumigatus [15]", "result": 0.125, "unit": "µg/mL"}, {"measurement": "MIC / MEC", "setting": "Aspergillus fumigatus [15]", "result": 0.13, "unit": "µg/mL"}, {"measurement": "MFC", "setting": "Trichophyton rubrum [16]", "result": "> 16", "unit": "µg/mL"}, {"measurement": "MIC", "setting": "Trichophyton rubrum [16]", "result": 8, "unit": "µg/mL"}, {"measurement": "MIC / MEC", "setting": "Trichophyton rubrum [16]", "result": 8, "unit": "µg/mL"}]}
{"compound": "CC(=O)N1CCN(c2ccc(OCC3COC(Cn4ccnc4)(c4ccc(Cl)cc4Cl)O3)cc2)CC1", "note": "(centres unmarked) [KET, ketoconazole]", "values": [{"measurement": "MFC", "setting": "Saccharomyces cerevisiae [1]", "result": 8, "unit": "µg/mL"}, {"measurement": "MIC", "setting": "Saccharomyces cerevisiae [1]", "result": 1, "unit": "µg/mL"}, {"measurement": "MIC / MEC", "setting": "Saccharomyces cerevisiae [1]", "result": 1, "unit": "µg/mL"}, {"measurement": "MFC", "setting": "Candida albicans [2]", "result": 0.25, "unit": "µg/mL"}, {"measurement": "MIC", "setting": "Candida albicans [2]", "result": 0.0625, "unit": "µg/mL"}, {"measurement": "MIC / MEC", "setting": "Candida albicans [2]", "result": 0.06, "unit": "µg/mL"}, {"measurement": "antifungal MICc", "setting": "[3]; in combination with 10-ZOL", "result": 0.063}, {"measurement": "antifungal MICc", "setting": "[3]; in combination with ZOL", "result": 0.5}, {"measurement": "antifungal MICc", "setting": "Cryptococcus neoformans [4]; in combination with 10-ZOL", "result": 0.063}, {"measurement": "antifungal MICc", "setting": "Cryptococcus neoformans [4]; in combination with ZOL", "result": 0.125}, {"measurement": "antifungal MICc", "setting": "Fusarium oxysporum; in combination with 10-ZOL", "result": 16}, {"measurement": "antifungal MICc", "setting": "Fusarium oxysporum; in combination with ZOL", "result": 4}, {"measurement": "antifungal MICc", "setting": "Scedosporium apiospermum; in combination with 10-ZOL", "result": 4}, {"measurement": "antifungal MICc", "setting": "Scedosporium apiospermum; in combination with ZOL", "result": 4}, {"measurement": "antifungal MICc", "setting": "Saccharomyces cerevisiae [5]; in combination with 10-ZOL", "result": 0.25}, {"measurement": "antifungal MICc", "setting": "Saccharomyces cerevisiae [5]; in combination with ZOL", "result": 0.25}, {"measurement": "antifungal MICc", "setting": "Candida glabrata [6]; in combination with 10-ZOL", "result": 0.016}, {"measurement": "antifungal MICc", "setting": "Candida glabrata [6]; in combination with ZOL", "result": 0.031}, {"measurement": "antifungal MICc", "setting": "Candida albicans [7]; in combination with 10-ZOL", "result": 0.125}, {"measurement": "antifungal MICc", "setting": "Candida albicans [7]; in combination with ZOL", "result": 0.25}, {"measurement": "antifungal MICc", "setting": "Aspergillus flavus [8]; in combination with 10-ZOL", "result": 1}, {"measurement": "antifungal MICc", "setting": "Aspergillus flavus [8]; in combination with ZOL", "result": 2}, {"measurement": "antifungal MICc", "setting": "Aspergillus fumigatus [9]; in combination with 10-ZOL", "result": 0.25}, {"measurement": "antifungal MICc", "setting": "Aspergillus fumigatus [9]; in combination with ZOL", "result": 2}, {"measurement": "antifungal MICc", "setting": "Trichophyton rubrum [10]; in combination with 10-ZOL", "result": 1}, {"measurement": "antifungal MICc", "setting": "Trichophyton rubrum [10]; in combination with ZOL", "result": 1}, {"measurement": "MFC", "setting": "eight fungal species", "result": 6.7, "unit": "µg/mL"}, {"measurement": "MIC", "setting": "eight fungal species", "result": 1.3, "unit": "µg/mL"}, {"measurement": "MFC", "setting": "[11]", "result": 8, "unit": "µg/mL"}, {"measurement": "MIC", "setting": "[11]", "result": 4, "unit": "µg/mL"}, {"measurement": "MIC / MEC", "setting": "[11]", "result": 4, "unit": "µg/mL"}, {"measurement": "MFC", "setting": "Cryptococcus neoformans [12]", "result": 4, "unit": "µg/mL"}, {"measurement": "MIC", "setting": "Cryptococcus neoformans [12]", "result": 0.25, "unit": "µg/mL"}, {"measurement": "MIC / MEC", "setting": "Cryptococcus neoformans [12]", "result": 0.25, "unit": "µg/mL"}, {"measurement": "MIC / MEC", "setting": "Candida glabrata [13]", "result": 0.5, "unit": "µg/mL"}, {"measurement": "MFC", "setting": "Candida glabrata [13]", "result": 4, "unit": "µg/mL"}, {"measurement": "MIC", "setting": "Candida glabrata [13]", "result": 0.5, "unit": "µg/mL"}, {"measurement": "MFC", "setting": "Aspergillus flavus [14]", "result": 8, "unit": "µg/mL"}, {"measurement": "MIC", "setting": "Aspergillus flavus [14]", "result": 2, "unit": "µg/mL"}, {"measurement": "MIC / MEC", "setting": "Aspergillus flavus [14]", "result": 2, "unit": "µg/mL"}, {"measurement": "MFC", "setting": "Aspergillus fumigatus [15]", "result": 16, "unit": "µg/mL"}, {"measurement": "MIC", "setting": "Aspergillus fumigatus [15]", "result": 4, "unit": "µg/mL"}, {"measurement": "MIC / MEC", "setting": "Aspergillus fumigatus [15]", "result": 4, "unit": "µg/mL"}, {"measurement": "MFC", "setting": "Trichophyton rubrum [16]", "result": "> 16", "unit": "µg/mL"}, {"measurement": "MIC", "setting": "Trichophyton rubrum [16]", "result": 4, "unit": "µg/mL"}, {"measurement": "MIC / MEC", "setting": "Trichophyton rubrum [16]", "result": 4, "unit": "µg/mL"}]}
